Laboratory results reported in patent US20210276987A1, “PHARMACEUTICAL AGENTS FOR USE IN SMOKING AND TOBACCO CESSATION” (Washington State University, priority 2018, published 2021).
pIC50: −log10 of the molar value. Read-outs that look alike come from different tables or passages of the source.

Key:
[1] = molecular target: CYP2C19 (Homo sapiens, UniProt P33261); experiment: CYP2C19 inhibition assay, human liver microsomes, omeprazole probe (cocktail); settings: Table 6
[2] = molecular target: UGT2B4 (Homo sapiens, UniProt P06133); settings: Table 10
[3] = molecular target: T1, CYP2A6 (Homo sapiens, UniProt P11509); experiment: biochemical; settings: IC50 against CYP2A6; human liver microsomes
T1 sequence (P11509 1-494): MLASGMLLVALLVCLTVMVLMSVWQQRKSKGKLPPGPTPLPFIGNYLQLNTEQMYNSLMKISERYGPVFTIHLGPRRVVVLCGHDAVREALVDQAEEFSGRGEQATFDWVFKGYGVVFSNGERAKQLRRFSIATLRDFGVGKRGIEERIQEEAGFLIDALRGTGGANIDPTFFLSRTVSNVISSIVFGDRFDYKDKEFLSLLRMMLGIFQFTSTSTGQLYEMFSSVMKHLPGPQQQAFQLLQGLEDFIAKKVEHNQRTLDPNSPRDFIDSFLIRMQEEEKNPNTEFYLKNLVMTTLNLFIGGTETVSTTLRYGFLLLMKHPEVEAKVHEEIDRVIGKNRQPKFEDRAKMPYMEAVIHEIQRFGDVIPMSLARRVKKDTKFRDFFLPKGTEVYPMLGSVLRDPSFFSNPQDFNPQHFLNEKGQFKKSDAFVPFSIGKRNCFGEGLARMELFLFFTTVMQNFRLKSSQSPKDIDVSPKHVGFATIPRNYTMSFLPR

[4] = molecular target: UGT1A6 (Homo sapiens, UniProt P19224); settings: Table 10
[5] = system: at least two (not named) of CYPs 1A2, 2B6, 2C8, 2C9, 2C19, 2D6, 2E1 and 3A4, relative to CYP2A6; experiment: in vitro; settings: human
[6] = molecular target: T1, CYP2A6; settings: read-out: IC50 against CYP2A6; Table 5, alkyne linker agents; pooled human liver microsomes, coumarin […]
[7] = system: UGTs 1A1, 1A4, 1A6, 1A9, 2B4, 2B7, 2B10, 2B15 and 2B17; experiment: Selectivity over other major hepatic UGT enzymes (panel statement); assay type: biochemical, human
[8] = molecular target: CYP2D6 (Homo sapiens, UniProt P10635); experiment: CYP2D6 inhibition assay, human liver microsomes, dextromethorphan probe (cocktail); settings: Table 6
CYP2D6, sequence (P10635 whole entry): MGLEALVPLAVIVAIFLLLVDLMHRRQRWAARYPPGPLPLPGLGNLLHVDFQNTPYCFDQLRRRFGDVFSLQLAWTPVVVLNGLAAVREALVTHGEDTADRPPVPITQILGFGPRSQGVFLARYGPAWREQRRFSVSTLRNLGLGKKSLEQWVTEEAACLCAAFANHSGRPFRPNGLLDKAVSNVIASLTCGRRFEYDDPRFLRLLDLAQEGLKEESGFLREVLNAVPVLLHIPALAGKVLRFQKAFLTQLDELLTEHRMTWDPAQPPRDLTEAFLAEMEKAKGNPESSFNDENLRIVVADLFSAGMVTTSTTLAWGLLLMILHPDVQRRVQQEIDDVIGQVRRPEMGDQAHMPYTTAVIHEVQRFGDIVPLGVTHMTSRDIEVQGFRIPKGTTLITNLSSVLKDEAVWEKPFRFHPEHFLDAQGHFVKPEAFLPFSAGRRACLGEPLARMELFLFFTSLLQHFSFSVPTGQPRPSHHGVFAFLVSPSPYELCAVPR

UGT1A6, sequence (P19224 27-532): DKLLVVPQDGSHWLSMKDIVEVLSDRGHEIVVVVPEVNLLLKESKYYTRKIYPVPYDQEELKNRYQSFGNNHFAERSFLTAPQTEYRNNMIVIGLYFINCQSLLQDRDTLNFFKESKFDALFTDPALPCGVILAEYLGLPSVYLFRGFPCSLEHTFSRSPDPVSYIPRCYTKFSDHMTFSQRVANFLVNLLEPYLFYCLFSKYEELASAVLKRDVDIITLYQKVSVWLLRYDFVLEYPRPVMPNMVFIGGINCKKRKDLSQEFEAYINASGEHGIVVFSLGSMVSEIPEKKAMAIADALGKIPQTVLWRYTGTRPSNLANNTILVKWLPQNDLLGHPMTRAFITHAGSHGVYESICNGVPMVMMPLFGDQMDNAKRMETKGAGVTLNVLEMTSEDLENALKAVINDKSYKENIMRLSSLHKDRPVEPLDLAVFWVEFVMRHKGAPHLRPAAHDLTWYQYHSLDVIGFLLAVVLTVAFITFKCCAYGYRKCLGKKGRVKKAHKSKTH
CYP2C19, sequence (P33261 whole entry): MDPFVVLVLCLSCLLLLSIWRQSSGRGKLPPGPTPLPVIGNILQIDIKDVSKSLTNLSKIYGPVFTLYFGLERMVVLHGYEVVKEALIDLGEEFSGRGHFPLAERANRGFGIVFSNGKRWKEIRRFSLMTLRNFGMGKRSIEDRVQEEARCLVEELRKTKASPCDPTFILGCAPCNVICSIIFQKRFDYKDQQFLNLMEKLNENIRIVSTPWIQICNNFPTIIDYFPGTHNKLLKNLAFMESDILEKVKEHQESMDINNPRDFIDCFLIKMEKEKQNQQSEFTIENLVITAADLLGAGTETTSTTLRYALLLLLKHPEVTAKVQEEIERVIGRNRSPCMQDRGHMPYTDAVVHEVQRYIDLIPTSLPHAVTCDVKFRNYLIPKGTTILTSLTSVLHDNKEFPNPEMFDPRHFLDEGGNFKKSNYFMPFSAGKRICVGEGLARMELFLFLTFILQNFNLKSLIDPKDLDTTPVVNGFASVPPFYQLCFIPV
UGT2B4, sequence (P06133 24-528): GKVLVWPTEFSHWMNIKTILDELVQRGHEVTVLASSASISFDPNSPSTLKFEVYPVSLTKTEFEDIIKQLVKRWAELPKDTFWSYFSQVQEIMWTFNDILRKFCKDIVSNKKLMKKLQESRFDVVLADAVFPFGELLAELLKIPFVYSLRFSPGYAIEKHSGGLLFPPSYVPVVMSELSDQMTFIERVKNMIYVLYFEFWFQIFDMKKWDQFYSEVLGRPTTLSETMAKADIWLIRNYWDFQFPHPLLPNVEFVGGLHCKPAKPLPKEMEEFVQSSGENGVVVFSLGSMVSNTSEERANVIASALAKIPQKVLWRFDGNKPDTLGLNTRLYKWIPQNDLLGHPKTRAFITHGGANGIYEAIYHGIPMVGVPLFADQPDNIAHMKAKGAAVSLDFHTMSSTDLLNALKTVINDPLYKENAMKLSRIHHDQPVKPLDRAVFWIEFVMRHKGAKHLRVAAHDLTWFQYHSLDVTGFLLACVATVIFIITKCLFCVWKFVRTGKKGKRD

## COc1ccncc1C#CCN [Compound K, 3-(4-methoxypyridin-3-yl)prop-2-yn-1-amine]
[1]
  IC50 ratio CYP2C19/CYP2A6: 2.7
[2]
  IC50 ratio UGT2B4/UGT2B10: 3.5
[3]
  pIC50: > 5.00
[4]
  IC50 ratio UGT1A6/UGT2B10: 29
[5]
  selectivity ratio at 15 min: < 5
[6]
  pIC50: 5.47
[7]
  UGThepatic/UGT2B10 IC50 ratio against all UGT enzymes tested: > 3.5
[8]
  IC50 ratio CYP2D6/CYP2A6: >15
